The source of these data is patent US20240360154A1, “AROYL SUBSTITUTED TRICYCLIC COMPOUND, PREPARATION METHOD THEREFOR AND USE THEREOF” (GENFLEET THERAPEUTICS (SHANGHAI) INC., priority 2020, published 2024).

Assay [1] has as its system TMD-8 cells. Description: TMD-8 proliferation inhibition experiment. The format is cell-based. The conditions noted are these: human diffuse large B lymphoma cells, three days incubation. Summed up:
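Log-phase cells seeded in 384-well plates (600 TMD-8 in RPMI 1640, 2000 OCI-LY10 in IMDM, both 10% FBS), then exposed one day later to 3-fold compound dilutions at 0.25% DMSO for three days. ADP-Glo luminescence read; inhibition versus DMSO and medium-only blank, IC50 by four-parameter fit.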

For assay [2], the target named is BTK (Homo sapiens (Human), UniProt Q06187). As to the kind of experiment: BTK enzyme experiment (ADP-Glo kinase assay). The note with it: 10 nM BTK, ATP 125 μM, Poly(Glu4, Tyr1), 90 minutes at 20° C.; read-out: BTK(WT) IC50. It is filed as biochemical. Summed up: (§1)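 Wild-type or C481S BTK, added as 2× solution at 10 nM, preincubated 10 min with 3-fold compound dilutions in 50 mM HEPES pH 7.5, 10 mM MgCl2, 2 mM DTT, 0.0015% Brij-35. ADP-Glo luminescence norm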
Sequence of BTK (Q06187 whole entry): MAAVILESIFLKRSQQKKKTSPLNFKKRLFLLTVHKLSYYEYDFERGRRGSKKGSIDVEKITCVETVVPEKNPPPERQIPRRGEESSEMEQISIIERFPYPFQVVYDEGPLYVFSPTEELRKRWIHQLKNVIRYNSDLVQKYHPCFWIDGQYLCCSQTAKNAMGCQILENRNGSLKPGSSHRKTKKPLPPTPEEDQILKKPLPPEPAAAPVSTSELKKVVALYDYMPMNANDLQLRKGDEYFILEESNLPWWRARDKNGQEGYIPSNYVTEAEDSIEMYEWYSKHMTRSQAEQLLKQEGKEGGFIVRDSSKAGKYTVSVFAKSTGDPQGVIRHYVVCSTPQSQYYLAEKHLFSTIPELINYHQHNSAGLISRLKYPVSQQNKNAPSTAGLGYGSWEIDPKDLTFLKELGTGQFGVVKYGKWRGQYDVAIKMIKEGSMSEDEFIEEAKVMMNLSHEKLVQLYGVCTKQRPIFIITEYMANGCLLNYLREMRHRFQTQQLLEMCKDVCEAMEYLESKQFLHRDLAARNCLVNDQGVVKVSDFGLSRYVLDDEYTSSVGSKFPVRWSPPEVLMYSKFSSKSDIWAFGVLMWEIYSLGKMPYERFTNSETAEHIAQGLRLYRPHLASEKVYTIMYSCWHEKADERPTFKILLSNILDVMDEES
In general terms: In ADP-Glo the light output rises with the ADP produced.

Assay [3] addresses p-BTK (WT) (Homo sapiens (Human), UniProt Q06187). As to the kind of experiment: p-BTK cell experiment, HEK293 transfected with WT-BTK plasmid (P-BTK Y223 sandwich ELISA). The format is cell-based. The conditions noted are these: HEK293 cells, compound cultured for two hours. On the procedure: (§2) Day 1: HEK293 cells (ADDEXBIO, T0011001) at logarithmic growth phase were taken, digested with enzyme EDTA, collected and counted, and 2E6 cells were inoculated in a 10 cm culture dish and cultured overnight. Day 2: A mixed solution containing 6 μg of WT-BTK/C481S-BTK plasmid and 18 μL of FuGENE HD transfection reagent was prepared by using 1000 μL of Opti-MEM. After standing at room temperature for 10 minutes, the mixed solution was slowly added to the culture dish with a pipettor and cultured overnight. Day 3: The culture dish was taken out, and the cells were digested with enzyme EDTA, collected and counted, and 1E4 cells were inoculated in a 96-well cell culture plate and cultured overnight. A 3.16-fold gradient concentration stock solution of 1000× compound was prepared using DMSO, and placed at room temperature. Day 4: A prepared 1000× compound stock solution was taken, and diluted 200-fold to 5× compound stock solution with culture medium. 5× compound stock solution was added to each cell culture well with a final concentration of 1× compound stock solution and a DMSO content of 0.1%. DMSO was used as an experimental control. After the compound was added and cultured for two hours, the residual culture medium was removed. 100 μL of cell lysis buffer was added to each well, stood on ice for 30 minutes, and ultrasonically lysed with ice water for 5 minutes. After diluting the cell lysate in proportion, 80 μL of the mixture was transfer to an ELISA plate, and 80 μL of cell lysis buffer was added to the blank well. After incubating in an incubator at 37° C. for 2 hours, the plate was taken and the antibody incubation and color development termination operation were completed according to the instructions of Pathscan P-BTK (Y223) Sandwich ELISA Kit (Cell Signaling #23843 CA), and finally the OD value was read. The inhibition rate of the compound (%)=(ODcontrol−ODcompound)/(ODcontrol−ODblank)×100% was calculated. The compound gradient dilution concentration and the corresponding cell proliferation inhibition rate were fit by using Prism 8 four-parameter method, and IC50 value was calculated.

The target of assay [4] is BTK (C481S) (Homo sapiens (Human), UniProt Q06187, C481S). As to the kind of experiment: BTK C481S enzyme experiment (ADP-Glo kinase assay). The format is biochemical. The conditions noted are these: 10 nM BTK C481S, ATP 125 μM, Poly(Glu4, Tyr1), 90 minutes at 20° C. The method in brief:
as §1

In assay [5] the target is p-BTK (C481S) (Homo sapiens (Human), UniProt Q06187, C481S). Description: p-BTK cell experiment, HEK293 transfected with C481S-BTK plasmid (P-BTK Y223 sandwich ELISA). The conditions noted are these: HEK293 cells, compound cultured for two hours. The format is cell-based. On the procedure:
as §2
Background: ELISA stands for enzyme-linked immunosorbent assay.

By IC50 is commonly meant the concentration that inhibits the measured activity by half.

Structures are written as SMILES.

Sequence of p-BTK (WT) (Q06187 whole entry): as above
Sequence of BTK (C481S) (Q06187 whole entry C481S): as the sequence (Q06187 whole entry) above, with C481S counted along it
Sequence of p-BTK (C481S) (Q06187 whole entry C481S): as the sequence (Q06187 whole entry) above, with C481S counted along it

On to `O=C(c1ccc(Oc2ccccc2)cc1Cl)c1c[nH]c2ncc3c(c12)N[C@]1(CC[C@@H](O)C1)C(=O)N3` (single isomer, unassigned) [Z24-c], for which the half-inhibitory concentration (IC50) in assay [1] was 50.6 nM; in assay [2] it was 3.2 nM; in assay [3] it was 19.6 nM; in assay [4], 3 nM; in assay [5], 16.2 nM.

Take `CC(=O)N1CC[C@]2(C1)Nc1c(cnc3[nH]cc(C(=O)c4ccc(Oc5ccccc5)cc4Cl)c13)NC2=O` (single isomer, unassigned) [Z4-1]: the half-inhibitory concentration (IC50) came to 305 nM in assay [1]; 17 nM in assay [2]; 70.8 nM in assay [3]; 6.8 nM in assay [4]; 97.6 nM in assay [5].

Take `C[C@@]1(CO)Nc2c(cnc3[nH]cc(C(=O)c4ccc(Oc5ccccc5)cc4Cl)c23)NC1=O` (single isomer, unassigned) [Z9-2]: the IC50 in assay [1] came to 73.8 nM; in assay [2] it was 9.5 nM; in assay [3], 62.6 nM; in assay [4], 10.8 nM; in assay [5], 134 nM.

As to `COC[C@]1(C)Nc2c(cnc3[nH]cc(C(=O)c4ccc(Oc5nccc(C)c5F)cc4Cl)c23)NC1=O` [Z132, 9-(2-chloro-4-((3-fluoro-4-methylpyridin-2-yl)oxy)benzoyl)-2-(methoxymethyl)-2-methyl-4,7-dihydro-1H-pyrrolo[3′,2′:5,6]pyrido[3,4-b]pyrazin-3(2H)-one], the IC50 in assay [1] (Homo sapiens, TMD8, 72 h) worked out at 133 nM; in assay [2], 11.8 nM; in assay [3], 16.5 nM; in assay [4], 15.5 nM; in assay [5], 36.1 nM.

For `[2H]C([2H])([2H])OC[C@]1(C)Nc2c(cnc3[nH]cc(C(=O)c4ccc(Oc5ccccc5F)cc4Cl)c23)NC1=O` [Z160, (S)-9-(2-chloro-4-(2-fluorophenoxy)benzoyl)-2-((methoxy-d3)methyl)-2-methyl-1,2,4,7-tetrahydro-3H-pyrrolo[3′,2′:5,6]pyrido[3,4-b]pyrazin-3-one], the IC50 came out at 108 nM in assay [1] (Homo sapiens, TMD8, 72 h); 16.8 nM in assay [2]; 16.7 nM in assay [3]; 21.5 nM in assay [4]; 27.5 nM in assay [5].

Consider `O=C(c1ccc(Oc2ccccc2)cc1Cl)c1c[nH]c2ncc3c(c12)NC1(CCC(N2CCOCC2)C1)C(=O)N3` (stereo not shown) [Z141, 9′-(2-chloro-4-phenoxybenzoyl)-3-morpholino-4′,7′-dihydrospiro[cyclopentane-1,2′-pyrrolo[3′,2′:5,6]pyrido[3,4-b]pyrazin]-3′(1′H)-one], for which the IC50 in assay [1] (Homo sapiens, TMD8, 72 h) is 58.4 nM; in assay [2], 11.5 nM; in assay [3], 20.5 nM; in assay [4], 5.1 nM; in assay [5], 22.4 nM.

For `[2H]C([2H])([2H])OC[C@]1(C([2H])([2H])[2H])Nc2c(cnc3[nH]cc(C(=O)c4ccc(Oc5ccccc5)cc4Cl)c23)NC1=O` [Z161, (S)-9-(2-chloro-4-phenoxybenzoyl)-2-((methoxy-d3)methyl)-2-(methyl-d3)-1,2,4,7-tetrahydro-3H-pyrrolo[3′,2′:5,6]pyrido[3,4-b]pyrazin-3-one], the IC50 in assay [1] (Homo sapiens, TMD8, 72 h) is 72.8 nM; in assay [2] it was 10.6 nM; in assay [3], 17 nM; in assay [4], 12.5 nM; in assay [5] it was 39.2 nM.

Consider `N#C[C@@H]1CC[C@]2(C1)Nc1c(cnc3[nH]cc(C(=O)c4ccc(Oc5ccccc5)cc4Cl)c13)NC2=O` (single isomer, unassigned) [Z26-1], for which the IC50 in assay [1] came out at 47.7 nM; in assay [2] it was 15.6 nM; in assay [3], 31.5 nM; in assay [4], 15.4 nM; in assay [5], 38.4 nM.

Turning to `O=C(c1ccccc1Cl)c1c[nH]c2ncc3c(c12)NC1(CCOCC1)C(=O)N3` [Z197, 9′-(2-chlorobenzoyl)-2,3,4′,5,6,7′-hexahydrospiro[pyran-4,2′-pyrrolo[3′,2′:5,6]pyrido[3,4-b]pyrazin]-3′(1′H)-one], the concentration for half-maximal inhibition (IC50) amounted to 3 nM in assay [2], 5.2 nM in assay [3], 1.3 nM in assay [4] and 1.6 nM in assay [5].

As for `COC[C@]1(C)Nc2c(cnc3[nH]cc(C(=O)c4ccc(F)c(F)c4Cl)c23)NC1=O` [Z195, (S)-9-(2-chloro-3,4-difluorobenzoyl)-2-(methoxymethyl)-2-methyl-1,2,4,7-tetrahydro-3H-pyrrolo[3′,2′:5,6]pyrido[3,4-b]pyrazin-3-one], the IC50 in assay [2] worked out at 3.9 nM; in assay [3] it was 2.8 nM; in assay [4], 3.9 nM; in assay [5], 1.4 nM.

As for `CC(=O)N1CCC2(C1)Nc1c(cnc3[nH]cc(C(=O)c4ccc(Oc5ccccc5)cc4Cl)c13)NC2=O` (stereo not shown) [Z4], the IC50 in assay [2] amounted to 17.1 nM; in assay [3], 375 nM; in assay [4], 10.3 nM; in assay [5], 340 nM.

On to `CN1CCC2(C1)Nc1c(cnc3[nH]cc(C(=O)c4ccc(Oc5ccccc5)cc4F)c13)NC2=O` (stereo not shown) [Z5], for which the concentration for half-maximal inhibition (IC50) in assay [2] amounted to 27.8 nM; in assay [3], 35.8 nM; in assay [4] it was 12 nM; in assay [5] it was 36.6 nM.

For `CC1(C)Nc2c(cnc3[nH]cc(C(=O)c4ccccc4Cl)c23)NC1=O` [Z120, 9-(2-chlorobenzoyl)-2,2-dimethyl-1,2,4,7-tetrahydro-3H-pyrrolo[3′,2′:5,6]pyrido[3,4-b]pyrazin-3-one], the IC50 in assay [2] came to 4.3 nM; in assay [3], 2.5 nM; in assay [4] it was 2 nM; in assay [5], 1 nM.

As to `COCC1(C)Nc2c(cnc3[nH]cc(C(=O)c4ccc(Oc5cc(C)ccn5)cc4Cl)c23)NC1=O` (stereo not shown) [Z64, 9-(2-chloro-4-((4-methylpyridin-2-yl)oxy)benzoyl)-2-(methoxymethyl)-2-methyl-1,2,4,7-tetrahydro-3H-pyrrolo[3′,2′:5,6]pyrido[3,4-b]pyrazin-3-one], the IC50 is 6.5 nM in assay [2], 65.8 nM in assay [3], 13.3 nM in assay [4] and 90 nM in assay [5].

`CCOCC1(C)Nc2c(cnc3[nH]cc(C(=O)c4ccc(Oc5ccccc5)cc4Cl)c23)NC1=O` (stereo not shown) [Z67, 9-(2-chloro-4-phenoxybenzoyl)-2-(ethoxymethyl)-2-methyl-1,2,4,7-tetrahydro-3H-pyrrolo[3′,2′:5,6]pyrido[3,4-b]pyrazin-3-one]: the half-inhibitory concentration (IC50) in assay [1] (Homo sapiens, TMD8, 72 h) turned out to be 262 nM; in assay [2] it was 40 nM; in assay [4], 18.3 nM.

Regarding `COC1CCC2(C1)Nc1c(cnc3[nH]cc(C(=O)c4ccc(Oc5ccccc5)cc4Cl)c13)NC2=O` (single isomer, unassigned) [Z25-3a, 9′-(2-chloro-4-phenoxybenzoyl)-3-methoxy-4′,7′-dihydrospiro[cyclopentane-1,2′-pyrrolo[3′,2′:5,6]pyrido[3,4-b]pyrazin]-3′(1′H)-one], the 50% inhibitory concentration (IC50) came out at 102 nM in assay [1], 15.4 nM in assay [2] and 7.6 nM in assay [4].

In the case of `COC1CCC2(C1)Nc1c(cnc3[nH]cc(C(=O)c4ccc(Oc5ccccc5)cc4Cl)c13)NC2=O` (single isomer, unassigned) [Z25-3, 9′-(2-chloro-4-phenoxybenzoyl)-3-methoxy-4′,7′-dihydrospiro[cyclopentane-1,2′-pyrrolo[3′,2′:5,6]pyrido[3,4-b]pyrazin]-3′(1′H)-one], the IC50 in assay [1] stood at 108 nM; in assay [2] it was 22.4 nM; in assay [4], 16.4 nM.

For the compound `[2H]C([2H])([2H])OC[C@@]1(C)Nc2c(cnc3[nH]cc(C(=O)c4ccc(Oc5ccccc5)cc4Cl)c23)NC1=O` (single isomer, unassigned) [Z66-2], the 50% inhibitory concentration (IC50) is 299 nM in assay [1] (Homo sapiens, TMD8, 72 h); 12.7 nM in assay [2]; 8.6 nM in assay [4].
